System: patients with persistent moderate to severe atopic dermatitis inadequately controlled by TCS
Experiment: Clinical Study I (phase II, lebrikizumab + TCS vs placebo + TCS): efficacy outcomes
Assay type: in vivo, human
Conditions: for Change from baseline Pruritus VAS, mean % change / Change from baseline Pruritus VAS, placebo-corrected differences / Change from baseline in EASI, mean % change / Change from baseline in EASI, placebo-corrected differences / Patients maintaining EASI-50 response at Weeks 12 and 20, % / Patients maintaining EASI-50 response at Weeks 12 and 20, placebo-corrected differences / Patients maintaining EASI-75 response at Weeks 12 and 20, % / Patients maintaining EASI-75 response at Weeks 12 and 20, placebo-corrected differences / Patients maintaining IGA 0/1 response at Weeks 12 and 20, % / Patients maintaining IGA 0/1 response at Weeks 12 and 20, placebo-corrected differences / Patients maintaining SCORAD-50 response at Weeks 12 and 20, % / Patients maintaining SCORAD-50 response at Weeks 12 and 20, placebo-corrected differences: Week 20
Description: Clinical Study I was a phase II, randomized, double-blind, placebo-controlled study to evaluate the safety and efficacy of lebrikizumab in patients (age 18-75) with persistent moderate to severe atopic dermatitis that is inadequately controlled by topical corticosteroids (TCS). In this Study, lebrikizumab was tested in combination with TCS.
The inclusion criteria included the following: age 18 to 75 years; AD diagnosed by the Hanifin/Rajka criteria and that had been present for at least 1 year at screening; moderate to severe AD as graded by the Rajka/Langeland criteria at screening; history of inadequate response to a 1 month (within the 3 months prior to the screening visit) treatment regimen of at least daily TCS and regular emollient for treatment of AD; EASI score 14 at screening and end of the run-in period (Visit 3), IGA score 3 (5-point scale) at screening and end of the run-in period (Visit 3); AD involvement of 10% body surface area (BSA) at screening; and Pruritus VAS score (measured as part of the SCORAD) of 3 at screening.
Run-in Period. Following the screening visit, eligible patients entered a 2-week run-in period (Days −14 to −1) during which a protocol-specified topical therapy regimen was initiated. On the first day of the run-in period (Day −14) patients received TCS for use throughout the run-in period. Patients were required to apply the following topical therapy regimen daily: emollient to all xerotic skin surfaces, at least once daily; TCS cream consisting of medium potency TCS (triamcinolone acetonide 0.1%), two times per day, only to all active skin lesions.
Treatment Period. […] The plan was to randomize approximately 200 patients (1:1:1:1) to one of the following four treatment groups (see FIG. 1): (1) Group 1: lebrikizumab 250 mg administered subcutaneously (SC) single dose (Day 1) followed by 2 placebo doses (at Week 4 and at Week 8) for a total of 3 doses+TCS cream; (2) Group 2: lebrikizumab 125 mg SC single dose (Day 1) followed by 2 placebo doses (Week 4 and Week 8) for a total of 3 doses+TCS cream; (3) Group 3: lebrikizumab 125 mg SC every 4 weeks (Q4W) for a total of 3 doses+TCS cream; and (4) Group 4: placebo SC Q4W for a total of 3 doses+TCS cream. Three active doses were included to characterize both exposure-response relationships and dosing frequency requirements.
Patients randomized to these four study treatment groups received study drug (lebrikizumab or placebo SC) in combination with TCS. Throughout the 12-week treatment period these patients continued to apply emollient at least once daily and triamcinolone acetonide 0.1% cream as described in the run-in period (two times per day to all active skin lesions on the body). […] Patients recorded their use of topical creams and responded to PRO-related questions using a hand held eDiary throughout the treatment period. At each study visit the patient was required to bring their TCS containers to the study site to be weighed.
Efficacy Outcome Measures. The primary efficacy outcome measure was the percentage of patients achieving EASI-50 (a 50% reduction in EASI score from baseline) at Week 12. […]

[1] = 125 mg Q4W + TCS BID (n = 51), Week 12
[2] = 125 mg Q4W + TCS BID (n = 51), Week 12, listed as Lebri
[3] = 125 mg once every four weeks + TCS, Week 12, post hoc analysis
[4] = 125 mg single dose + TCS BID (n = 52), Week 12

Substance: lebrikizumab: monoclonal humanized anti-IL-13 IgG4 antibody; heavy chain SEQ ID NO: 11, light chain SEQ ID NO: 12; formulated at 125 mg/mL in prefilled syringe
- % Patients achieving EASI-50 [1]: 82.4%
- % Patients achieving EASI-50, placebo-corrected changes [1]: 20.1%
- % Patients achieving EASI-75 [1]: 54.9%
- % Patients achieving EASI-75, placebo-corrected changes [1]: 20.9%
- % Patients achieving IGA 0/1 [1]: (33.3) %
- % Patients achieving IGA 0/1, placebo-corrected change [1]: 14.5%
- % Patients achieving SCORAD-50 [1]: 51.0%
- % Patients achieving SCORAD-50, placebo-corrected change [1]: 24.6%
- % Patients achieving SCORAD-75 [1]: (21.6) %
- % change from baseline in AD Specific health-related QoL - ADIQ, mean [1]: −54.3%
- % change from baseline in ADIQ, placebo-corrected change [1]: −25.3%
- % change from baseline in Pruritus VAS (from SCORAD), mean [1]: −40.71%
- % change from baseline in Pruritus VAS (from SCORAD), placebo-corrected change [1]: −13.7%
- % change from baseline in Sleep Loss VAS (from SCORAD), mean [1]: −53.6%
- % change from baseline in Sleep Loss VAS (from SCORAD), placebo-corrected change [1]: −31.0%
- DLQI, % change from baseline, adjusted mean [1]: −43.12%
- DLQI, % change from baseline, Δ vs placebo [1]: −9.55%
- SCORAD score % change from baseline, adjusted mean [1]: −53.5%
- SCORAD score % change from baseline, Δ vs placebo [1]: −18.0%
- Total % BSA affected, % change from baseline, adjusted mean [1]: −57.7%
- Total % BSA affected, % change from baseline, Δ vs placebo [1]: −10.3%
- % Patients achieving EASI-50 [2]: (82.4) %
- % Patients achieving EASI-75 [2]: (54.9) %
- % Patients achieving SCORAD-50 [2]: (51.0) %
- reduction in BSA affected (125 mg Q4W + TCS, Week 12): 57.7%
- Change from baseline Pruritus VAS, mean % change (125 mg Q4W + TCS): −35.23%
- Change from baseline Pruritus VAS, placebo-corrected differences (125 mg Q4W + TCS): −13.76%
- Change from baseline in EASI, mean % change (125 mg Q4W + TCS): −71.1%
- Change from baseline in EASI, placebo-corrected differences (125 mg Q4W + TCS): −17.08%
- Patients maintaining EASI-50 response at Weeks 12 and 20, % (125 mg Q4W + TCS): (90.5) %
- Patients maintaining EASI-50 response at Weeks 12 and 20, placebo-corrected differences (125 mg Q4W + TCS): 17.75%
- Patients maintaining EASI-75 response at Weeks 12 and 20, % (125 mg Q4W + TCS): (75.0) %
- Patients maintaining EASI-75 response at Weeks 12 and 20, placebo-corrected differences (125 mg Q4W + TCS): 8.33%
- Patients maintaining IGA 0/1 response at Weeks 12 and 20, % (125 mg Q4W + TCS): (70.6) %
- Patients maintaining IGA 0/1 response at Weeks 12 and 20, placebo-corrected differences (125 mg Q4W + TCS): 10.59%
- Patients maintaining SCORAD-50 response at Weeks 12 and 20, % (125 mg Q4W + TCS): (50.0) %
- Patients maintaining SCORAD-50 response at Weeks 12 and 20, placebo-corrected differences (125 mg Q4W + TCS): −28.60%
- Change from baseline Pruritus VAS, mean % change (125 mg SD + TCS): −27.59%
- Change from baseline Pruritus VAS, placebo-corrected differences (125 mg SD + TCS): −6.13%
- Change from baseline in EASI, mean % change (125 mg SD + TCS): −62.1%
- Change from baseline in EASI, placebo-corrected differences (125 mg SD + TCS): −8.08%
- Patients maintaining EASI-50 response at Weeks 12 and 20, % (125 mg SD + TCS): (80.6) %
- Patients maintaining EASI-50 response at Weeks 12 and 20, placebo-corrected differences (125 mg SD + TCS): 7.83%
- Patients maintaining EASI-75 response at Weeks 12 and 20, % (125 mg SD + TCS): (45.0) %
- Patients maintaining EASI-75 response at Weeks 12 and 20, placebo-corrected differences (125 mg SD + TCS): −21.70%
- Patients maintaining IGA 0/1 response at Weeks 12 and 20, % (125 mg SD + TCS): (54.5) %
- Patients maintaining IGA 0/1 response at Weeks 12 and 20, placebo-corrected differences (125 mg SD + TCS): −5.45%
- Patients maintaining SCORAD-50 response at Weeks 12 and 20, % (125 mg SD + TCS): (61.1) %
- Patients maintaining SCORAD-50 response at Weeks 12 and 20, placebo-corrected differences (125 mg SD + TCS): −17.50%
- ADIQ reduction from screening [3]: 64.7%
- Pruritus VAS reduction from screening [3]: 55.2%
- Sleep Loss VAS reduction from screening [3]: 61.5%
- placebo corrected change in EASI (difference between lebrikizumab treatment and placebo) (125 mg once every four weeks for 12 weeks + TCS, P=0.025): 17.4%
- % change (decrease) from baseline in EASI (125 mg once every four weeks for 12 weeks + TCS, modified intention-to-treat population): 70.5%
- % Patients achieving EASI-50 [4]: (69.2) %
- % Patients achieving EASI-50, placebo-corrected changes [4]: 7.0%
- % Patients achieving EASI-75 [4]: (38.5) %
- % Patients achieving EASI-75, placebo-corrected changes [4]: 4.5%
- % Patients achieving IGA 0/1 [4]: (21.2) %
- % Patients achieving IGA 0/1, placebo-corrected change [4]: 2.3%
- % Patients achieving SCORAD-50 [4]: (34.6) %
- % Patients achieving SCORAD-50, placebo-corrected change [4]: 8.2%
- % Patients achieving SCORAD-75 [4]: (13.5) %
- % change from baseline in AD Specific health-related QoL - ADIQ, mean [4]: −33.9%

From patent US12692302B2, “Uses of IL-13 antagonists for treating atopic dermatitis” (Genentech, Inc., priority 2016, dated 2026)
